This note sets out measurements from ChEMBL document CHEMBL1201862, “PubChem BioAssay data set” (2004).

Each structure is given as a SMILES string. Calls of active or inactive are those of the source.

Common to all, as to format: functional
For assay [1], the target named is T1, Sentrin-specific protease 6 (Homo sapiens, UniProt Q9GZR1).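 Further: Luminescence-based dose-response confirmatory assay of SENP6 inhibition, following up an ultra-high-throughput screen.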
T1 sequence (Q9GZR1 whole entry): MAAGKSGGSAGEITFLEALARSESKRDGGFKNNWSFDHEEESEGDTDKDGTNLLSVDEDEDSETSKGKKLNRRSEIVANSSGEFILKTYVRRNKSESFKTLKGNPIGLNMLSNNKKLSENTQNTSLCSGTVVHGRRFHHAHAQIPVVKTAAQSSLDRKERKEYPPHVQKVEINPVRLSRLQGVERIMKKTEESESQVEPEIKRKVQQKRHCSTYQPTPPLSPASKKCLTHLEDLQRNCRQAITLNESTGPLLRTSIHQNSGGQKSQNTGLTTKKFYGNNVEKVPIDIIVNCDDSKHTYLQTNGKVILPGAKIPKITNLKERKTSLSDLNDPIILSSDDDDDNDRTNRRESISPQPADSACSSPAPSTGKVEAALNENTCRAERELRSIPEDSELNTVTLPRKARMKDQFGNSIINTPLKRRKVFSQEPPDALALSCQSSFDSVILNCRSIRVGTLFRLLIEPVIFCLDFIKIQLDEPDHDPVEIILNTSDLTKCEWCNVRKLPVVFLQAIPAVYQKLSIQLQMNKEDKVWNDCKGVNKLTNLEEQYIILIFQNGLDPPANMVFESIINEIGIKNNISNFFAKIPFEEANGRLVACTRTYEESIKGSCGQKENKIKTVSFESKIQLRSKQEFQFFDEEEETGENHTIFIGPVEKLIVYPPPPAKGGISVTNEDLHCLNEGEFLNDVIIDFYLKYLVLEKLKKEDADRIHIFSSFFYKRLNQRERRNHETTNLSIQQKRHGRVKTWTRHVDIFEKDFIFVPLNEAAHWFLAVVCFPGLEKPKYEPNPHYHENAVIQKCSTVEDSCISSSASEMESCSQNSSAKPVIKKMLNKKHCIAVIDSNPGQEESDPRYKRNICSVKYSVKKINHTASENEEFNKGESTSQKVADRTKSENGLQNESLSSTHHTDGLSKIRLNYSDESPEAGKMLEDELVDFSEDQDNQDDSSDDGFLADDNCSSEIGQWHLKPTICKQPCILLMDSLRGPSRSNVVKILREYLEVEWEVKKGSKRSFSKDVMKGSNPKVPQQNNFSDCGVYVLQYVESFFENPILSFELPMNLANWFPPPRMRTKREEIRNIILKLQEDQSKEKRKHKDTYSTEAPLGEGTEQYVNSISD

For assay [2], the target named is T2, Sentrin-specific protease 8 (Homo sapiens, UniProt Q96LD8).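 Further: kinetic enzyme assay of SENP8 cleaving a Nedd8 protein substrate, dose-response confirmation of screening hits.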
T2 sequence (Q96LD8 whole entry): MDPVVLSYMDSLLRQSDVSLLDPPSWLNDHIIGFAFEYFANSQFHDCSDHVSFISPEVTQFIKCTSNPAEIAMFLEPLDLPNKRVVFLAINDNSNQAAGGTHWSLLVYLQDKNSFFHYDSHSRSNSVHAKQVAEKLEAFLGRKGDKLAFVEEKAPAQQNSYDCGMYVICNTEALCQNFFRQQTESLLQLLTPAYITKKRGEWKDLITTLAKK

In assay [3] the target is Tyrosine-protein kinase SYK (Homo sapiens, UniProt P43405).
Assay [4] addresses MAP kinase-activated protein kinase 5 (Homo sapiens, UniProt Q8IW41).
Assay [5] deals with Cell division cycle 7-related protein kinase (Homo sapiens, UniProt O00311).
Cell division cycle 7-related protein kinase, sequence (O00311 whole entry): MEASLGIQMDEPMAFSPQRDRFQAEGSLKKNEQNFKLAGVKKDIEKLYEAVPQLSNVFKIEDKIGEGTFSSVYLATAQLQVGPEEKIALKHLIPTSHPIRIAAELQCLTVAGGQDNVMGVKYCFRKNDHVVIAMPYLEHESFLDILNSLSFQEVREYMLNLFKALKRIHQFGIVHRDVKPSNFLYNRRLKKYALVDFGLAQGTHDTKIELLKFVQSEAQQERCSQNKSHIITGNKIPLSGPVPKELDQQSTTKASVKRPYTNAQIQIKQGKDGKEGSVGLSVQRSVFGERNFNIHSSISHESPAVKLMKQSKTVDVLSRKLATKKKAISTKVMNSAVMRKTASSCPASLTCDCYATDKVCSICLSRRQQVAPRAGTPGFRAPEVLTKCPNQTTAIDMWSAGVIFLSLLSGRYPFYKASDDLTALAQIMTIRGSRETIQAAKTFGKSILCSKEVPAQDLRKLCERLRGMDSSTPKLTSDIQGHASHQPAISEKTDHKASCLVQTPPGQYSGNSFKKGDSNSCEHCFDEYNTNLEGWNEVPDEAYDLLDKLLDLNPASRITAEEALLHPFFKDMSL
For assay [6], the target named is MAP kinase-activated protein kinase 3 (Homo sapiens, UniProt Q16644).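 Further: value comes from a kinome-wide profiling panel in which MAPKAPK3 is one of the panel members.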
MAP kinase-activated protein kinase 3, sequence (Q16644 whole entry): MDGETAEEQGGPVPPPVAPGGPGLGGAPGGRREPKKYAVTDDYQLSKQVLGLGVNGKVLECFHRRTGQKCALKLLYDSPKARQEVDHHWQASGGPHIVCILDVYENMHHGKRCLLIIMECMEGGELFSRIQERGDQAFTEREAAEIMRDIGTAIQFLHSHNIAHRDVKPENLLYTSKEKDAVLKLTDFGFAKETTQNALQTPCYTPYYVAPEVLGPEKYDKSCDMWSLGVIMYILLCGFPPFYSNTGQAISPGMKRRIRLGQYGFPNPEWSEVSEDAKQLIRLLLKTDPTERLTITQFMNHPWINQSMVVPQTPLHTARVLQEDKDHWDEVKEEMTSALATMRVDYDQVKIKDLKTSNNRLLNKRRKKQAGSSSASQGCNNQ
The target in assay [7] is MAP kinase-interacting serine/threonine-protein kinase 2 (Homo sapiens, UniProt Q9HBH9).
MAP kinase-interacting serine/threonine-protein kinase 2, sequence (Q9HBH9 whole entry): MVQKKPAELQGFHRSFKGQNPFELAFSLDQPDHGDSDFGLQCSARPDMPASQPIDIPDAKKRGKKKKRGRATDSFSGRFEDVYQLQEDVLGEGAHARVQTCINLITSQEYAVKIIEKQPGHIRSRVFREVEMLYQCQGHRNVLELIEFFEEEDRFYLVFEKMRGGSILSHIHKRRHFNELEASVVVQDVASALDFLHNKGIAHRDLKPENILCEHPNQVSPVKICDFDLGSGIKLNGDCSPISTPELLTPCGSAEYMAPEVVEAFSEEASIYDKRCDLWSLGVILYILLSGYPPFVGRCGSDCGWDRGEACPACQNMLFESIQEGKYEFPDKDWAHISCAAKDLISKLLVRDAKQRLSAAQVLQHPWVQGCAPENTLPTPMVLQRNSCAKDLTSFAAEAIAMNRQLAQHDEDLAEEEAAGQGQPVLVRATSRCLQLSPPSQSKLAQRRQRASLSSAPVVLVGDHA
Assay [8] addresses Mitogen-activated protein kinase 1 (Homo sapiens, UniProt P28482).
For the next assay, the target named is Misshapen-like kinase 1 (Homo sapiens, UniProt Q8N4C8).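 Further: kinome panel screen with MINK as the panel member.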
Misshapen-like kinase 1, sequence (Q8N4C8 whole entry): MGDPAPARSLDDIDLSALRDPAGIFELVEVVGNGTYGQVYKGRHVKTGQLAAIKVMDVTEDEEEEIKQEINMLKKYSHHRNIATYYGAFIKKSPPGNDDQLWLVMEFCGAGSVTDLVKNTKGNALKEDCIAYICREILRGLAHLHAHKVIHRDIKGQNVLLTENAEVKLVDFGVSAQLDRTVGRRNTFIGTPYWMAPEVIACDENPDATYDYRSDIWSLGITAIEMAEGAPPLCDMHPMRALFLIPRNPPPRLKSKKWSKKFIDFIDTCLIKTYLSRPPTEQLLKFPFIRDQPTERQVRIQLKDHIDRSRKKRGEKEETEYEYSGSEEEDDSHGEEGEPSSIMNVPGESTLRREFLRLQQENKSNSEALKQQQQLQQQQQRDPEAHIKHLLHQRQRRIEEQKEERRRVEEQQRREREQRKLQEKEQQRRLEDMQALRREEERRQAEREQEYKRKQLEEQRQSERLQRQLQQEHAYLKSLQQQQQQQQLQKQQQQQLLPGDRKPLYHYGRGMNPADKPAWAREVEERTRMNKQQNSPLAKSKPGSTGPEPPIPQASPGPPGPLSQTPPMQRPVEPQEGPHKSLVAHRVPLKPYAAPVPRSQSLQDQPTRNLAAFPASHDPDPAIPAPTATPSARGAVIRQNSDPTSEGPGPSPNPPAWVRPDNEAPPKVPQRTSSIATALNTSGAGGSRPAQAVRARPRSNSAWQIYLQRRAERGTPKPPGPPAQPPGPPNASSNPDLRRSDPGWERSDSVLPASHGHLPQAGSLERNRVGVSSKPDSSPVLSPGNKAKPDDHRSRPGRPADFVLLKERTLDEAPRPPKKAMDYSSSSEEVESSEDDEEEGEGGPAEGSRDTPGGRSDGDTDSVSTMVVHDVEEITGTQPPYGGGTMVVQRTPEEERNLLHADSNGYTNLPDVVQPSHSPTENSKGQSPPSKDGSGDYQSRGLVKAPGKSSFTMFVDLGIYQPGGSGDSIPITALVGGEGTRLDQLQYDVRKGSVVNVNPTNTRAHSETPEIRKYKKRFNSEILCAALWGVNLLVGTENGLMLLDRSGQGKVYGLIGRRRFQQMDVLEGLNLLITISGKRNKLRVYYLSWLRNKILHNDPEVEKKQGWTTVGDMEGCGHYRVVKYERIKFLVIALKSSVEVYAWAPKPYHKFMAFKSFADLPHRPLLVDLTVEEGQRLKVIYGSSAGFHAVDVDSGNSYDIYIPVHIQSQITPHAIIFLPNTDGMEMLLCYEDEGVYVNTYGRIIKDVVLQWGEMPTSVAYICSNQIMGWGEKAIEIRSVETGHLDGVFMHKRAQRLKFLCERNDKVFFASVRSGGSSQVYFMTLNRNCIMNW
Assay [9] has as its target Protein kinase C iota type (Homo sapiens, UniProt P41743).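 Further: measured within a kinome-wide kinase panel, PRKCI as panel member.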
Assay [10] concerns the target Serine/threonine-protein kinase pim-2 (Homo sapiens, UniProt Q9P1W9).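 Further: value comes from a broad kinase panel profiling study in which PIM2 was one of the panel members.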
Assay [11] addresses Tyrosine-protein kinase Lck (Homo sapiens, UniProt P06239).
Assay [12] concerns the target Platelet-derived growth factor receptor beta (Homo sapiens, UniProt P09619).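 Further: value comes from a kinome panel, with PDGFRB tested as one panel member.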

Protein kinase C iota type, sequence (P41743 whole entry): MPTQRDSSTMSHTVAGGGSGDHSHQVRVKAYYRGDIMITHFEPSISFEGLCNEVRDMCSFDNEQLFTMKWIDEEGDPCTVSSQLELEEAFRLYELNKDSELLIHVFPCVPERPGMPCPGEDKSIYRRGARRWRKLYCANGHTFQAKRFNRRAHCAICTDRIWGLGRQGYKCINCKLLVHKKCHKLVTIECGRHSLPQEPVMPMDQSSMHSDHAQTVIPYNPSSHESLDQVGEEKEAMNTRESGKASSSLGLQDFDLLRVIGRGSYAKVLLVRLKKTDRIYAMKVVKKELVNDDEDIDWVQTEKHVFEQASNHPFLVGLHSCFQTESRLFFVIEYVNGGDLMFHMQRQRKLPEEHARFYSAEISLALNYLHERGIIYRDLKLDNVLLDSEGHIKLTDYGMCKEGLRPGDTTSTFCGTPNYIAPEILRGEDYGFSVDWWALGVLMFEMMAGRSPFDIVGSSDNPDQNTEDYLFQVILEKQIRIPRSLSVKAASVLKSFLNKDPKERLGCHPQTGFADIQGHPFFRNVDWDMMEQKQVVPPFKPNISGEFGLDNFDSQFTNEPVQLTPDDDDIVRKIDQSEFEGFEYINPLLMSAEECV
Mitogen-activated protein kinase 1, sequence (P28482 whole entry): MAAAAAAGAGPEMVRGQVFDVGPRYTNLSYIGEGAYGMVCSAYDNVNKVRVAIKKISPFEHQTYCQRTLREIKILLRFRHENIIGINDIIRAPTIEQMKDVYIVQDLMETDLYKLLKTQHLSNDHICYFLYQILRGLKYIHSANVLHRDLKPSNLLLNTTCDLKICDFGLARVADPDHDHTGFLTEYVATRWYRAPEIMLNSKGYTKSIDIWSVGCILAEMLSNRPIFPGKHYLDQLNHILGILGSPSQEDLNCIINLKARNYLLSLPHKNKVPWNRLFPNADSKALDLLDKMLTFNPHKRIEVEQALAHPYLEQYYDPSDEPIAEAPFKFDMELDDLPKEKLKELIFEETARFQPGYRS
MAP kinase-activated protein kinase 5, sequence (Q8IW41 whole entry): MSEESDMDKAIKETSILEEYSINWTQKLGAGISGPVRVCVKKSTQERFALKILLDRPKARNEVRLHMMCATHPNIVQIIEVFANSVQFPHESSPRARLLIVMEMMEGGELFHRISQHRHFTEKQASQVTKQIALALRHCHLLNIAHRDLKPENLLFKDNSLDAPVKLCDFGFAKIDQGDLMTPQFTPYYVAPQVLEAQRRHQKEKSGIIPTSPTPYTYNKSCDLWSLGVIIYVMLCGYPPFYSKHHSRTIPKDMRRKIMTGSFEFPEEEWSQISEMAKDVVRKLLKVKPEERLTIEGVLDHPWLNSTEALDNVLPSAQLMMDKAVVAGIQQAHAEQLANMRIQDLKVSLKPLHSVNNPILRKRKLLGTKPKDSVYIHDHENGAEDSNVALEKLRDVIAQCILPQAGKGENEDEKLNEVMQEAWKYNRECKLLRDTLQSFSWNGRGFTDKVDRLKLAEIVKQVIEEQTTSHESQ
Tyrosine-protein kinase Lck, sequence (P06239 whole entry): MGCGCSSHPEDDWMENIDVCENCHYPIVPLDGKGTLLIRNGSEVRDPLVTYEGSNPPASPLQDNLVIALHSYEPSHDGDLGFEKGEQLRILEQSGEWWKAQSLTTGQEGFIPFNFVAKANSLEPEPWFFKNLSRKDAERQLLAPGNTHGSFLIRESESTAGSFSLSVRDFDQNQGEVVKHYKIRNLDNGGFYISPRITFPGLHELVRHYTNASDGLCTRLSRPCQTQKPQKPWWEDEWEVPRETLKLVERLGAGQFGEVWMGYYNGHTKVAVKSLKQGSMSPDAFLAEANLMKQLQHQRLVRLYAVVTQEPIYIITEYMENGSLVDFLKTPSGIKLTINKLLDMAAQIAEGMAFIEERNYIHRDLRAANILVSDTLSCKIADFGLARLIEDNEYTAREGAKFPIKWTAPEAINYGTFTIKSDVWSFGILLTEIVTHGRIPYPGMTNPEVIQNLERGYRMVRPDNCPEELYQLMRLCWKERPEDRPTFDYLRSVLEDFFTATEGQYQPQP
Serine/threonine-protein kinase pim-2, sequence (Q9P1W9 whole entry): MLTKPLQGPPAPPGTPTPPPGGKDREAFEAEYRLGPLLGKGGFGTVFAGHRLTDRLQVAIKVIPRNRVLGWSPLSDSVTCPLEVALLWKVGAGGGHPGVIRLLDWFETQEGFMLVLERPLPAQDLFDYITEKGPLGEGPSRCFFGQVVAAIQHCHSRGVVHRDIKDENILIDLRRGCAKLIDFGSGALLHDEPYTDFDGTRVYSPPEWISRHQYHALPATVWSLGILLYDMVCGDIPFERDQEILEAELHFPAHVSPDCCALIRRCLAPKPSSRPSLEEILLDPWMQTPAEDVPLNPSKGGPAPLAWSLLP

What is called IC50 is the midpoint of a concentration-inhibition curve. Turning to `O=C1C2=[N+]([O-])[C@H]3CCCC[C@H]3[N+]([O-])=C2c2ccccc21`, the IC50 in assay [1] was 10200 nM (active); in assay [2] it was 2680 nM (active).
One may read the Ki as the dissociation constant of the complex between target and ligand, obtained from inhibition or displacement. For `NC1CCC(Nc2nccc(-c3c[nH]c4ncccc34)n2)CC1` (stereo not drawn), the Ki in [3] is > 1580 nM (inactive); in assay [4], > 1580 nM (inactive); in [5], 5.01 nM (active); in assay [6] it was > 10000 nM (inactive); in [7], 251 nM (active); in assay [8], 1580 nM (active). In addition, the Ki is 251 nM (active) on Misshapen-like kinase 1, 31.6 nM (active) in [9] and 501 nM (active) in assay [10].
As for `OCc1cc(-c2ccc3[nH]ncc3c2)on1`, the Ki in assay [11] was 100000 nM (active); in assay [12], 50100 nM (active).
